According to PubChem BioAssay AID330 (DTP/NCI, 2004):
Values joined by “and” are separate entries in the source; they are usually repeats but may differ in a detail not shown here. Equal entries are not always repeated. Toxic doses and inconclusive results are not listed. Bridge positions count the residues as written; N and C are the ends. Square brackets hold non-standard residues; d marks the D form. Peptide text beside a SMILES is read from it. NMeV = CN[CH](C(=O)O)C(C)C; Sar = CNCC(=O)O

System: P388 leukemia ip, CD2F1 mice, survival T/C
Experiment: NCI In Vivo Anticancer Drug Screen. Data for tumor model P388 Leukemia (intraperitoneal) in CD2F1 (CDF1) mice
Settings: endpoint: median survival time, higher = longer survival
Procedure, shortened: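 Mice carrying the transplanted tumor received test compound or vehicle. Survival was recorded in each group, and the value is the treated-group measurement divided by that of the vehicle-treated control group.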

[1] = dose: 25.0 mg/kg/injection, schedule: Q01DX009 (ip), vehicle: saline with Tween-80
[2] = dose: 50.0 mg/kg/injection, schedule: Q01DX009 (ip), vehicle: saline with Tween-80
[3] = dose: 50.0 mg/kg/injection, schedule: Q01DX009 (ip), vehicle: saline
[4] = dose: 100.0 mg/kg/injection, schedule: Q01DX009 (ip), vehicle: saline with Tween-80
[5] = dose: 200.0 mg/kg/injection, schedule: Q01DX009 (ip), vehicle: saline
[6] = dose: 50.0 mg/kg/injection, schedule: Q01DX005 (ip), vehicle: Klucel (hydroxypropylcellulose) (HPC)
[7] = dose: 100.0 mg/kg/injection, schedule: Q01DX005 (ip), vehicle: Klucel (hydroxypropylcellulose) (HPC)
[8] = dose: 200.0 mg/kg/injection, schedule: Q01DX005 (ip), vehicle: Klucel (hydroxypropylcellulose) (HPC)
[9] = dose: 50.0 mg/kg/injection, schedule: Q01DX005 (ip), vehicle: saline with Tween-80
[10] = dose: 100.0 mg/kg/injection, schedule: Q01DX005 (ip), vehicle: saline with Tween-80
[11] = dose: 200.0 mg/kg/injection, schedule: Q01DX005 (ip), vehicle: saline with Tween-80

## COc1cc2c(cc1OC)C1C(O)C(OC)C=C3CCN(C2)C31 (centres undefined)
[1]
  T/C: 114 % of control
[2]
  T/C: 114 % of control
[3]
  T/C: 93 % of control
[4]
  T/C: 118 % of control
dose: 100.0 mg/kg/injection, schedule: Q01DX009 (ip), vehicle: saline
  T/C: 119 % of control
[5]
  T/C: 102 % of control

## COc1cc(NS(=O)(=O)c2ccccc2)c2nc3ccc(Cl)cc3nc2c1
dose: 60.0 mg/kg/injection, schedule: Q01DX005 (ip), vehicle: Klucel (hydroxypropylcellulose) (HPC)
  T/C: 96 % of control
dose: 120.0 mg/kg/injection, schedule: Q01DX005 (ip), vehicle: Klucel (hydroxypropylcellulose) (HPC)
  T/C: 90 % of control
dose: 240.0 mg/kg/injection, schedule: Q01DX005 (ip), vehicle: Klucel (hydroxypropylcellulose) (HPC)
  T/C: 89 % of control

## CSc1nc(N)c(C(N)=O)s1
dose: 50.0 mg/kg/injection, schedule: Q01DX009 (ip), vehicle: Klucel (hydroxypropylcellulose) (HPC)
  T/C: 100 % of control
dose: 100.0 mg/kg/injection, schedule: Q01DX009 (ip), vehicle: Klucel (hydroxypropylcellulose) (HPC)
  T/C: 103 % of control
dose: 200.0 mg/kg/injection, schedule: Q01DX009 (ip), vehicle: Klucel (hydroxypropylcellulose) (HPC)
  T/C: 109 % of control

## Cc1cccc(Nc2nc(C)nc3[nH]c(Cc4ccccc4)c(C)c23)c1
[6]
  T/C: 86 % of control
[7]
  T/C: 86 % of control
[8]
  T/C: 88 % of control

## CCOc1cc2c(cc1C(C)c1ccc(OCc3ccccc3)c(OC)c1)OCO2 (centres undefined)
[6]
  T/C: 97 % of control
[7]
  T/C: 97 % of control
[8]
  T/C: 92 % of control

## CCOC(=O)N1CCc2cc3c(cc2C1Cc1ccc(OC)c(OC)c1COC(C)=O)OCO3 (centres undefined)
[9]
  T/C: 100 % of control
[10]
  T/C: 100 % of control
[11]
  T/C: 89 % of control

## CC(C)C1NC(=O)C(N)C(C)OC(=O)C(C(C)C)N(C)C(=O)CN(C)C(=O)C2CCCN2C1=O (centres undefined) (tested in a mixture with another compound) (H-TVP[Sar][NMeV]; ester 1-C; configuration not given here)
dose: 15.0 micrograms/kg/injection, schedule: Q01DX009 (ip), vehicle: water
  T/C: 163 % of control
dose: 31.0 micrograms/kg/injection, schedule: Q01DX009 (ip), vehicle: water
  T/C: 159 % of control
dose: 62.0 micrograms/kg/injection, schedule: Q01DX009 (ip), vehicle: water
  T/C: 164 % of control
dose: 110.0 micrograms/kg/injection, schedule: Q01DX009 (ip), vehicle: other
  T/C: 200 % of control
dose: 125.0 micrograms/kg/injection, schedule: Q01DX009 (ip), vehicle: water
  T/C: 179 % of control
dose: 165.0 micrograms/kg/injection, schedule: Q01DX009 (ip), vehicle: other
  T/C: 254 % of control
dose: 250.0 micrograms/kg/injection, schedule: Q01DX009 (ip), vehicle: other
  T/C: 180 % of control
dose: 250.0 micrograms/kg/injection, schedule: Q01DX009 (ip), vehicle: water
  T/C: 225 % of control

## Clc1ncn[nH]1
dose: 100.0 mg/kg/injection, schedule: Q01DX001 (ip), vehicle: Klucel (hydroxypropylcellulose) (HPC)
  T/C: 99 % of control
dose: 200.0 mg/kg/injection, schedule: Q01DX001 (ip), vehicle: Klucel (hydroxypropylcellulose) (HPC)
  T/C: 106 % of control
dose: 400.0 mg/kg/injection, schedule: Q01DX001 (ip), vehicle: Klucel (hydroxypropylcellulose) (HPC)
  T/C: 122 % of control

## COC(c1ccc(OCc2ccccc2)cc1)C(Br)C(=O)c1ccc(Cl)cc1Cl (centres undefined)
[2]
  T/C: 88 % of control
[4]
  T/C: 101 % of control
dose: 200.0 mg/kg/injection, schedule: Q01DX009 (ip), vehicle: saline with Tween-80
  T/C: 88 % of control

## CCN(CC)CCn1c(C)nc2c1C(=O)c1nc(C)n(CCN(CC)CC)c1C2=O
dose: 6.25 mg/kg/injection, schedule: Q01DX005 (ip), vehicle: saline
  T/C: 100 % of control
dose: 12.5 mg/kg/injection, schedule: Q01DX005 (ip), vehicle: saline
  T/C: 109 % of control

## C[Si](C)(C)SCCS[Si](C)(C)C
[9]
  T/C: 98 % of control
[10]
  T/C: 98 % of control
[11]
  T/C: 95 % of control

## O=c1c2cc(F)ccc2nnn1-c1ccccc1
dose: 12.5 mg/kg/injection, schedule: Q01DX009 (ip), vehicle: suspension in saline
  T/C: 88 % of control
dose: 25.0 mg/kg/injection, schedule: Q01DX009 (ip), vehicle: suspension in saline
  T/C: 98 % of control
[3]
  T/C: 86 % of control
dose: 50.0 mg/kg/injection, schedule: Q01DX009 (ip), vehicle: suspension in saline
  T/C: 107 % of control
[5]
  T/C: 90 % of control

## Cc1ccc2c(c1)N=C(Nc1ccccc1)N=S2(C)=O (centres undefined)
dose: 12.5 mg/kg/injection, schedule: Q01DX009 (ip), vehicle: saline with Tween-80
  T/C: 93 % of control
[1]
  T/C: 92 % of control
[2]
  T/C: 117 % of control and 119 % of control
[4]
  T/C: 104 % of control
